According to patent publication US20100297261A1, “Food Product and Fortification System Therefor” (priority 2005, published 2010):

What was measured:
[1] = guinea pigs; split by α-glucosidase in brush border of small intestine; cited from earlier work
[2] = humans; split by hydrolases in the small intestine; cited from earlier work
[3] = In vitro estimation of iron dialyzability (dough, simulated gastrointestinal conditions)
Procedure: All glass vessels used were incubated over night in 10% (v/v) HNO3 in water and subsequently rinsed with demineralised water. […] The dough was divided in portions of 16 g and stored at −20° C. until dissolution experiments took place.
The dough portions were suspended in water and homogenized for 10 s with a Braun Blender (type 4142) set at maximum speed. Subsequently, water, 0.45 g pepsin and HCl were added to a yield a 90 ml suspension of dough in simulated gastric fluid of pH 2.0. A 20 g sample was taken from the homogenous suspension for determination of total iron. The suspension was transferred to the vessel of a dissolution apparatus (VanK1 VK700, Varian; United States Pharmacopoeia (USP) dissolution apparatus, type II. Conditions for rotations per minute enzyme types and concentrations etc. taken as in the USP; <711> Dissolution; USP26/NF21; 2003; p. 1578-1579). […]
Dialyzable iron (sum of Fe^2+ and Fe^3+) was determined using a Hitachi 912 Analyser and reagents for the analysis of iron in human serum based on FerroZine (Roche Diagnostics Nederland BV). […]
Dialyzable iron is expressed as the percentage of the total iron present in the digest, assuming that it had equilibrated across the dialysis membrane by the time the content of the dialysis bag was collected.

SMILES	Intestinal absorption of intact compound [1]	Free ascorbic acid in the blood after consumption [2]	In vitro dialyzable Ionic iron (% of total iron) ([3]; dough with 50 mg/Kg iron from ferrous sulphate, Fe:enhancer 1:3, means ± SD of 4 or 5 experiments)	Relative availability ([3]; relative to the availability of iron from FeSO4)
O=C1O[C@H]([C@@H](O)CO)C(O)=C1O[C@H]1O[C@H](CO)[C@@H](O)[C@H](O)[C@H]1O [AA-2G, 2-O-α-D-glucopyranosyl-L-ascorbic acid]	cannot be absorbed	significant increase in free ascorbic acid in the blood		
O=S(=O)([O-])[O-].[Fe+2] [Ferrous sulphate, ferrous sulphate]			3.4 ± 1.8 % of total iron	1.0
